Test results reported in paper PMC8229550 (Pharmaceuticals, 2021).
Like-named read-outs stand apart in the source and are kept apart here.

Columns and labels:
[1] = molecular target: SARS-CoV-2 main protease (M^Pro) (Severe acute respiratory syndrome coronavirus 2, UniProt P0DTD1); assay: biochemical
MTT cytotoxicity assay = assay type: cell-based; conditions: normal human adult dermal fibroblasts (HDFa)
Experimental: To determine the half-maximal cell toxicity concentration (CC50) to assess the compound toxicity, we prepared stock solutions of the test compounds in 10% DMSO with ddH2O and further diluted with DMEM to the working solutions. The cytotoxic effect of the tested compounds was evaluated in normal human adult dermal fibroblasts (HDFa) (Sigma-Aldrich, Dorset, UK) using the previously reported 3-(4,5-dimethylthiazol-2-yl)-2,5-diphenyltetrazolium bromide (MTT) method with slight adjustments. Briefly, 100 µL cells/well at a density of 3 × 10^5 cells/mL were placed in 96-well plates and then incubated in 5% CO2 for 24 h at 37 °C. After 24 h, different concentrations of the test compound(s) were added to the cells in triplicate. After another 24 h, the supernatant was removed, and cells were washed with sterile 1× PBS three times. Then, 20 µL of 5 mg/mL MTT stock solution was added to each well, and the plate was incubated at 37 °C for 4 h. The produced formazan crystals were dissolved in 200 µL of acidified isopropanol (0.04 M HCl in absolute isopropanol). After that, we measured the absorbance of formazan solutions at λmax 540 nm using a BioTek Lx800 microplate reader (BioTek Instrument Ltd., Bedfordshire, UK). […]

## COC(=O)c1cc2cc(CCc3cc4c(o3)C(=O)c3c(O)c(OC)cc(OC)c3C4=O)c(O)c(O)c2c(=O)o1 [α-Rubromycin, α-rubromycin]
[1]; 0–250 µM substrate, 0–50 µM inhibitor, read-out: M^Pro inhibition constant Ki
  Ki: 3.22 µM
[1]; fluorescence, 40 µM substrate, 4 h at 20 °C, read-out: M^Pro inhibitory activity IC50
  IC50: 5.4 µM
MTT cytotoxicity assay
  CC50 at 24 h: 16.7 µM

## O=C(O)c1cc(=O)c2c(OCC(O)COc3cccc4oc(C(=O)O)cc(=O)c34)cccc2o1 [Cromoglicic acid, cromoglicic acid]
[1]
  IC50: 1.1 µM
  Ki: 0.68 µM
[1]; M^Pro inhibition, versus α-rubromycin
  Potency relative to α-rubromycin (times more potent): 4.5 times
MTT cytotoxicity assay
  CC50 at 24 h: > 100 µM
